Measured values reported in US20070031511A1, “Method of treatment” (priority 2003, published 2007).

How the values were obtained:
[1] = Quenching of peptide tryptophan fluorescence by ferric ions (stoichiometry, apparent Kd); type: binding; details: mean ± S.E.
In short: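 Ferric ions titrated into peptide in 10 mM sodium acetate pH 4.0, 100 mM NaCl, 0.005% Tween 20; Trp fluorescence quenching read at ex 290/em 345 nm. Stoichiometry and apparent Kd from linear regression of Cs/fa = pCa + Kd/(1−fa); means ±S.E. of independent experiments.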

CCK-2 receptor [2] = target: T1, CCK-2 receptor (Homo sapiens, UniProt P32239); assay: [125I]-BH-CCK8 displacement, CCK-2 receptor on transiently transfected COS-7 cells; type: binding; parameters: COS-7 cells transiently transfected with CCK-2 receptor cDNA; expressed in transfected cells; host or cells: COS-7
T1 sequence (P32239 1-447): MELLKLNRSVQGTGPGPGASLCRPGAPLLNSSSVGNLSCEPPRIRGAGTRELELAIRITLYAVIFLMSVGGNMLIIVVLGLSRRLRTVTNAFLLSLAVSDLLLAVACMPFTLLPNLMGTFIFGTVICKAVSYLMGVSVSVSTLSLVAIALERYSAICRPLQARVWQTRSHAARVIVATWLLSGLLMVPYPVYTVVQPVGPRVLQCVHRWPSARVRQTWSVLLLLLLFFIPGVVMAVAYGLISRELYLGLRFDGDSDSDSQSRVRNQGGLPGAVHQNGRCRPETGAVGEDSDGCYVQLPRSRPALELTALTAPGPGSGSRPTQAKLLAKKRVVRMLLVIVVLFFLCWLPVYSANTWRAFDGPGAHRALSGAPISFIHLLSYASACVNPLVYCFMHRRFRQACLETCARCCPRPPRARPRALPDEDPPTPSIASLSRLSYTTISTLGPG
Protocol: Non-specific binding was evaluated with […] of unlabelled CCK8. Incubation was stopped by adding 2 ml of ice-cold PBS containing 2% bovine serum albumin. After centrifugation, supernatants were removed and the radioactivity bound to the cell membranes was measured in a γ-counter (LKB, Wallac, Finland).
The lines of best fit shown in FIG. 21 were obtained by nonlinear regression to a single site model with the program Sigmaplot.

[3] = Quenching of gastrin tryptophan fluorescence by bismuth ions; type: binding; details: pH 4.0
Source text: Values from the indicated number of independent experiments were combined to obtain the mean values (±S.E.) presented above.

CCK-2 receptor [4] = target: T1, CCK-2 receptor; assay: Gamide-stimulated proliferation in CHO cells stably transfected with the CCK-2 receptor; type: cell-based; parameters: expressed in transfected cells; host or cells: CHO
rectal mucosa = assay: Proliferation in the rectal mucosa of rectally defunctioned rats (metaphase-arrested cells); type: in vivo; details: colloidal bismuth subcitrate 135 mg/kg/12 hours oral gavage 5 days per week, 4 weeks; Ggly 2.5 nmol/kg/hr
Protocol: DFO (400 mg/kg) was administered intraperitoneally thrice weekly, and bismuth ions were administered as colloidal bismuth subcitrate (135 mg/kg/12 hours) by oral gavage 5 days per week. After 4 weeks, the rats were injected with vincristine to arrest cycling cells in metaphase, and sacrificed 3 hrs later. Crypt heights in the rectal mucosa, and the number of metaphase arrested cells per crypt, were then determined microscopically.

CSCC[C@H](NC(=O)[C@H](Cc1c[nH]c2ccccc12)NC(=O)CNC(=O)[C@H](Cc1ccc(O)cc1)NC(=O)[C@H](C)NC(=O)[C@H](CCC(=O)O)NC(=O)[C@H](CCC(=O)O)NC(=O)[C@H](CCC(=O)O)NC(=O)[C@H](CCC(=O)O)NC(=O)[C@H](CCC(=O)O)NC(=O)[C@H](CC(C)C)NC(=O)[C@H](Cc1c[nH]c2ccccc12)NC(=O)[C@@H]1CCCN1C(=O)CNC(=O)[C@@H]1CCC(=O)N1)C(=O)N[C@@H](CC(=O)O)C(=O)N[C@@H](Cc1ccccc1)C(N)=O [Gamide]
Kd ([1]; pH 4.0, read-out: Kd (μM) of ferric ion binding (amidated gastrin17 and related peptides)): 0.2 ± 0.14 µM
Kd ([1]; pH 4.0, model with two identical independent binding sites, read-out: Ferric Kd): 0.2 ± 0.1 µM
% Maximum Binding (COS-7) (CCK-2 receptor [2]; binding in the absence of competitor, fitted, mean ± S.E.): 94.2 ± 2.4%
% Maximum Binding (COS-7) (CCK-2 receptor [2]; presence and absence of 1 μM DFO): 81.1 ± 1.7%
Predicted ordinate intercept, FIG. 21 (CCK-2 receptor [2]; single experiment): 86.1%
Ordinate intercept, FIG. 24A (CCK-2 receptor [2]; single experiment, presence and absence of 1 μM DFO): 81.1%
Kd ([3]; single experiment, two independent sites with identical affinities, read-out: Kd for bismuth ions, line of best fit of FIG. 11): 8.6 ± 1.2 µM
Kd ([3]; two identical independent binding sites, mean ± S.E. of 5 experiments, read-out: Bismuth Kd): 8.2 ± 0.8 µM

[Bi+3] [bismuth ions]
Effect on Gamide-stimulated proliferation (CCK-2 receptor [4]): did not significantly inhibit
Effect on binding of CCK8 to the CCK-2 receptor (CCK-2 receptor [2]; 2, 8 or 32 moles/mole, transfected COS-7 cells (FIG. 16)): no effect
Effect on stimulation of proliferation of the rectal mucosa by Ggly (rectal mucosa): completely abolished

Ggly: glycine-extended gastrin17, 18 amino acid non-amidated gastrin, SEQ ID NO:4, residues 55-72 of progastrin (XGPWLEEEEEAYGWMDFG; (1)..(1) pyroglutamate; listed as Homo sapiens)
Kd ([1]; 10 mM sodium acetate pH 4.0, 100 mM NaCl, 0.005% Tween 20, read-out: Kd (μM), apparent dissociation constant for ferric ions): 0.18 ± 0.04 µM
